Measured values reported in PubChem BioAssay (NCI).
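Cells were grown in 96-well plates and exposed to each compound for 48 hours at five concentrations; endpoints were interpolated linearly between bracketing concentrations, or set to the highest concentration if not reached. GI50 is the concentration that inhibits growth by half. TGI: concentration producing complete growth inhibition.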

Tests used:
Experiment in all cases: NCI anticancer screen, dose series, 48 h
MOLT-4 leukemia = test system: MOLT-4 leukemia
SR leukemia = test system: SR leukemia
K-562 leukemia = test system: K-562 leukemia
MALME-3M melanoma = test system: MALME-3M melanoma
SK-MEL-5 melanoma = test system: SK-MEL-5 melanoma
OVCAR-8 ovarian = test system: OVCAR-8 ovarian
HOP-92 NSCLC = test system: HOP-92 NSCLC
ACHN renal = test system: ACHN renal
U251 CNS = test system: U251 CNS
NCI-H226 lung = test system: NCI-H226 lung

| SMILES | GI50 (MOLT-4 leukemia) | TGI (MOLT-4 leukemia) | GI50 (SR leukemia) | TGI (SR leukemia) | GI50 (K-562 leukemia) | TGI (K-562 leukemia) | GI50 (MALME-3M melanoma) | TGI (MALME-3M melanoma) | GI50 (SK-MEL-5 melanoma) | TGI (SK-MEL-5 melanoma) | GI50 (OVCAR-8 ovarian) | TGI (OVCAR-8 ovarian) | GI50 (HOP-92 NSCLC) | TGI (HOP-92 NSCLC) | GI50 (ACHN renal) | TGI (ACHN renal) | GI50 (U251 CNS) | TGI (U251 CNS) | GI50 (NCI-H226 lung) | TGI (NCI-H226 lung) |
| --- | --- | --- | --- | --- | --- | --- | --- | --- | --- | --- | --- | --- | --- | --- | --- | --- | --- | --- | --- | --- |
| Nc1ccc(/C=C/C(=O)NCc2cc3cc(-c4ccc(C(=O)N5CCC(F)(F)CC5)cc4)cc(-c4ccc(F)cc4)c3o2)cn1 | 3.46 µM | > 100 µM | 12.9 µM | > 100 µM | 0.356 µM | > 100 µM | > 100 µM | > 100 µM | 14.2 µM | > 100 µM | 0.0404 µM | > 100 µM | 28.3 µM | > 100 µM | 83.9 µM | > 100 µM | 1.16 µM | > 100 µM | > 100 µM | > 100 µM |
| COc1ccc(C(=O)NCCN(C)C)c2nc3ccccc3nc12 | – | 7.3 µM | – | 23.3 µM | – | 5.72 µM | – | 6.8 µM | – | > 36.6 µM | – | > 41.5 µM | – | > 27.4 µM | – | > 100 µM | – | 40.9 µM | – | 16.8 µM |
| COc1ccc(OC)c(Cn2cc3c(c2-c2ccccc2)CCc2cnoc2-3)c1 | 3.95 µM | > 100 µM | 2.62 µM | > 100 µM | 2.67 µM | > 100 µM | 3.7 µM | > 100 µM | 3.7 µM | 40.3 µM | 19.2 µM | > 100 µM | 5.26 µM | > 100 µM | 6.89 µM | > 100 µM | 5.38 µM | > 100 µM | 40.8 µM | > 100 µM |
| O=C(O)[C@H](c1ccccc1)[C@@H](C(=O)O)c1ccccc1 | – | > 100 µM | – | > 100 µM | – | > 100 µM | – | > 100 µM | – | > 100 µM | – | > 100 µM | – | > 100 µM | – | > 100 µM | – | > 100 µM | – | > 100 µM |
| CC(=O)O[C@H]1CCc2c(cc(N)c3c2C(=O)C[C@]2(C)C([C@H](C)CCCC(C)C)CCC32C)C1(C)C (stereo not given in full) | – | > 100 µM | – | > 100 µM | – | > 100 µM | – | > 100 µM | – | > 100 µM | – | > 100 µM | – | > 100 µM | – | > 100 µM | – | > 100 µM | – | > 100 µM |
| CC(C)(C)OC(=O)NCCCCCCCn1c2c(c3ccccc3c1=O)C(=O)c1ccccc1-2 | 25.6 µM | > 100 µM | 4.95 µM | > 100 µM | 42.7 µM | > 100 µM | 37.2 µM | > 100 µM | 9.84 µM | 27.6 µM | 21.5 µM | > 100 µM | 15 µM | 37.1 µM | 27.1 µM | 90.4 µM | 28.9 µM | 89.5 µM | 31.3 µM | 77.8 µM |
| C=C1C(=O)O[C@H]2[C@H]1CC/C(C=Nc1c(N)cc(C(F)(F)F)cc1Br)=C\CC[C@@]1(C)O[C@@H]21 | 0.624 µM | > 100 µM | 1.08 µM | 6.73 µM | 1.99 µM | 6.87 µM | 1.71 µM | 3.34 µM | 1.35 µM | 2.64 µM | 2.34 µM | 9.03 µM | 1.17 µM | 2.75 µM | 1.41 µM | 2.71 µM | 1.69 µM | 3.17 µM | 2.09 µM | 5.29 µM |
